These results are taken from patent US20240360179A1, “STAPLED PEPTIDES AND METHODS THEREOF” (FOG PHARMACEUTICALS, INC., priority 2021, published 2024).

Where only a bound is given, the exact number is not on record here.

The first assay deals with COLO320DM cells. The experiment in a line: COLO320DM proliferation assay (CellTiter-Glo). To be noted: absolute IC50, read-out: COLO320DM Proliferation Abs IC50. Format: cell-based, human. The method in brief:
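COLO320DM cells, 250 cells/well in RPMI-1640 with 4% FBS, attached 18-22 h, then exposed 96 h at 37 °C, 5% CO2 to 7-point 1/2 dilutions from 20 uM to 313 nM. Viability by CellTiter-Glo luminescence; IC50 derived from the dose curve.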
For orientation: Cellular ATP, detected with luciferase, serves as a proxy for viable cell number.
As to `CC(=O)N1CCC[C@]12CC=CCCCC1(CCCC=CCCCOC(=O)N3CC[C@@]4(C3)NC(=O)[C@H](CCCCNC(=O)CC[C@@H](C(=O)N[C@@H](C)C(N)=O)NC(=O)[C@H](Cc3csc5ccccc35)NC(=O)[C@H](Cc3ccsc3)NC4=O)NC(=O)[C@H](Cc3ccccc3)NC(=O)[C@H](C)NC(=O)[C@H](Cc3ccccc3)NC(=O)[C@H](Cc3cccc(C(=O)O)c3)NC(=O)[C@H](CC(=O)O)NC1=O)NC(=O)[C@H](CC(C)(C)C)NC(=O)[C@H](CC(=O)O)NC2=O` (relative stereo) [I-386, Ac-PL3-Asp-Npg-B5-Asp-3COOHF-Phe-Ala-Phe-Lys*3-PyrS2-3Thi-BztA-GlnR*3-Ala-NH2], the IC50 was more than 20 µM. Consider `CC(=O)N1CCC[C@]12CC=CCCCC1(CCCC=CCCCOC(=O)N3CC[C@@]4(C3)NC(=O)[C@H](CCCCNC(=O)CC[C@@H](C(=O)N[C@@H](C)C(N)=O)NC(=O)[C@H](Cc3csc5ccccc35)NC(=O)[C@H](Cc3ccsc3)NC4=O)NC(=O)[C@H](Cc3ccccc3)NC(=O)[C@H](C)NC(=O)C(C)(C)NC(=O)[C@H](Cc3cccc(C(=O)O)c3)NC(=O)[C@H](CC(=O)O)NC1=O)NC(=O)[C@H](CCCN1CCOCC1)NC(=O)[C@H](CC(=O)O)NC2=O` (relative stereo) [I-313, Ac-PL3-Asp-MorphNva-B5-Asp-3COOHF-Aib-Ala-Phe-Lys*3-PyrS2-3Thi-BztA-GlnR*3-Ala-NH2], for which the IC50 was more than 20 µM.

Staying with this assay, now noted: read-out: COLO320DM Proliferation Abs IC50.
In the case of “Ac-PL3-Asp-DipA-B5-Asp-3COOHF-Ala-Ala-Phe-Lys*3-PyrS2-3Thi-34ClF-GlnR*3-Ala-Ala-[C18-PEG8]-Lys-NH2-NH2 [I-1792]”, the IC50 was not above 10 µM. As to “Ac-PL3-Asp-Npg-B5-Asp-3COOHF-Aib-Ala-Phe-Lys*3-PyrS2-3Thi-BztA-GlnR*3-dPro-NH2 [I-720]”, the IC50 was not above 10 µM.

On to “Ac-PL3-Asp-Ile-B5-Asp-3COOHF-Aib-Ala-Phe-Lys*3-PyrS2-2MeF-34ClF-GlnR*3-NH2 [I-1508]”, for which the IC50 was not above 10 µM. As for “Ac-PL3-Asp-Ile-B5-Asp-3COOHF-Ala-Ala-Phe-sAla*3-PyrS2-Phe-34ClF-TriAzLys*3-NH2 [I-1864]”, the IC50 is more than 20 µM. On to “Ac-PL3-Asp-Npg-B5-Asp-3COOHF-Aib-Ala-Phe-Lys*3-PyrS2-3Thi-BztA-GlnR*3-[mPEG16]Lys-NH2 [I-1183]”, for which the IC50 was not above 10 µM. With `CC(=O)N1CCC[C@@]1(C)C(=O)N[C@@H](CC(=O)O)C(=O)N[C@H](C(=O)N[C@]1(C)CCCCCCCCOC(=O)N2CC[C@@]3(C2)NC(=O)[C@H](CCCCNC(=O)CC[C@@H](C(=O)N[C@@H](C)C(N)=O)NC(=O)[C@H](Cc2csc4ccccc24)NC(=O)[C@H](Cc2ccsc2)NC3=O)NC(=O)[C@H](Cc2ccccc2)NC(=O)[C@H](C)NC(=O)C(C)(C)NC(=O)[C@H](Cc2cccc(C(=O)O)c2)NC(=O)[C@H](CC(=O)O)NC1=O)C(C)C` (relative stereo) [I-237, Ac-MePro-Asp-Val-R5-Asp-3COOHF-Aib-Ala-Phe-Lys*3-PyrS2-3Thi-BztA-GlnR*3-Ala-NH2], the IC50 is more than 20 µM. Regarding “124TriAc-PL3-Asp-Npg-B5-Asp-3COOHF-Aib-Ala-Phe-Lys*3-PyrS2-3Thi-BztA-GlnR*3-Ala-NH2 [I-1075]”, the IC50 was more than 20 µM. Regarding “Ac-PL3-Asp-Npg-B5-Asp-3COOHF-Aib-Ala-Phe-Lys*3-PyrS2-3Thi-BztA-GlnR*3-Ala-Ala-Val-Pro-Thr-Leu-Lys-NH2 [I-813]”, the IC50 was not above 10 µM. Regarding “Ac-PL3-Asp-Npg-B5-Asp-3COOHF-Aib-Ala-Phe-Lys*3-PyrS2-[3PyPrpc]2NH2F-BztA-GlnR*3-Ala-NH2 [I-1742]”, the IC50 fell in the range of 10 to 20 µM. “Ac-PL3-Asp-DipA-B5-Asp-3COOHF-CyLeu-Ala-Phe-Lys*3-PyrS2-2F3MeF-34ClF-GlnR*3-Leu-NH2 [I-1769]”: the IC50 was not above 10 µM. Still for that read-out and setting: as for “Me2NAc-PL3-Asp-Npg-B5-Asp-3COOHF-Aib-Ala-Phe-Lys*3-PyrS2-3Thi-BztA-GlnR*3-Ala-NH2 [I-1078]”, the figure is more than 20 µM. Turning to “Ac-PL3-Asp-Npg-B5-Asp-3COOHF-Aib-Ala-Phe-Lys*3-PyrS2-3Thi-34ClF-GlnR*3-Ala-Ala-Ala-[mPEG8]-Lys [I-1707]”, the IC50 is not above 10 µM. Take “Ac-PL3-Asp-DipA-B5-Asp-3COOHF-CyLeu-Ala-Phe-Lys*3-PyrS2-2F3MeF-BztA-GlnR*3-Phe-NH2 [I-1777]”: the IC50 is not above 10 µM. As to “Ac-PL3-Asp-Npg-B5-Asp-3COOHF-Aib-Ala-Phe-Lys*3-PyrS2-[15PyraPy]2NH2F-BztA-GlnR*3-Ala-NH2 [I-1752]”, the IC50 is not above 10 µM. Consider “Ac-PL3-Asp-Npg-B5-Asp-3COOHF-Aib-Ala-Phe-Lys*3-PyrS2-3Thi-BztA-GlnR*3-Ala-Lys-Leu-Pro-Val-nLeu-NH2 [I-814]”, for which the IC50 was not above 10 µM. As to “Ac-PL3-Asp-Npg-B5-Asp-3COOHF-Aib-Ala-Phe-dDab*3-PyrS2-3Thi-BztA-GlnR*3-Ala-Ala-Ala-Ala-Ala-NH2 [I-790]”, the IC50 is not above 10 µM. On to “Ac-PL3-Asp-DipA-B5-Asp-3COOHF-Ala-Ala-Phe-Lys*3-PyrS2-3Thi-34ClF-GlnR*3-Ala-Ala-[Oct-PEG8]-Lys-NH2-NH2 [I-1790]”, for which the IC50 is not above 10 µM. Still for that read-out and setting: the same measure for “Ac-PL3-Asp-Ile-B5-Asp-3COOHF-Aib-Ala-Phe-sAla*3-PyrS2-Phe-34ClF-TriAzLys*3-NH2 [I-1857]”: 10 to 20 µM. With “Ac-PL3-Asp-Ile-B5-Asp-3COOHF-Aib-Ala-Phe-Lys*3-PyrS2-Phe-3ClF-GlnR*3-NH2 [I-1598]”, the IC50 was not above 10 µM. For the molecule `CC(=O)N1CCC[C@]12CC=CCCCC1(CCCC=CCCCOC(=O)N3CC[C@@]4(C3)NC(=O)[C@H](CCCCNC(=O)CC[C@@H](C(=O)N[C@@H](C)C(N)=O)NC(=O)[C@H](Cc3csc5ccccc35)NC(=O)[C@H](Cc3ccncc3)NC4=O)NC(=O)[C@H](Cc3ccccc3)NC(=O)[C@H](C)NC(=O)C(C)(C)NC(=O)[C@H](Cc3cccc(C(=O)O)c3)NC(=O)[C@H](CC(=O)O)NC1=O)NC(=O)[C@H](CC(C)(C)C)NC(=O)[C@H](CC(=O)O)NC2=O` (relative stereo) [I-301, Ac-PL3-Asp-Npg-B5-Asp-3COOHF-Aib-Ala-Phe-Lys*3-PyrS2-4PyrA-BztA-GlnR*3-Ala-NH2], the IC50 was more than 20 µM.

Regarding “Ac-PL3-Asp-Cha-B5-Asp-3COOHF-Ala-Ala-Phe-Lys*3-PyrS2-2ClF-BztA-GlnR*3-NH2 [I-1528]”, the IC50 is not above 10 µM. The same measure, in the same setting: as for “Ac-PL3-Asp-Npg-B5-Asp-3COOHF-Aib-Ala-Phe-Lys*3-PyrS2-3Thi-34ClF-GlnR*3-NH2 [I-867]”, the figure is not above 10 µM; as for “Ac-PL3-Asp-Npg-B5-Asp-3COOHF-Aib-Ala-Phe-Lys*3-PyrS2-3Thi-BztA-GlnR*3-Ala-Val-Pro-Thr-Leu-Lys-NH2 [I-812]”, not above 10 µM. The same measure, in the same setting: as for “Ac-PL3-Asp-Chg-B5-Asp-3COOHF-Aib-Ala-Phe-Lys*3-PyrS2-2ClF-34ClF-GlnR*3-NH2 [I-1505]”, the figure is not above 10 µM; as for “Ac-PL3-Asp-DipA-B5-Asp-3COOHF-CyLeu-Ala-Phe-Lys*3-PyrS2-3Thi-34ClF-GlnR*3-NH2 [I-1117]”, not above 10 µM; as for “Ac-PL3-Asp-Ile-B5-Asp-3COOHF-CyLeu-Ala-Phe-Lys*3-PyrS2-Phe-34ClF-GlnR*3-NH2 [I-1052]”, not above 10 µM. Turning to “Ac-PL3-Asp-DipA-B5-Asp-3COOHF-CyLeu-Ala-Phe-Lys*3-PyrS2-3Thi-34ClF-GlnR*3-Ala-NH2 [I-1118]”, the IC50 is not above 10 µM. “Ac-PL3-Asp-Npg-B5-Asp-3COOHF-Aib-Ala-Phe-Lys*3-PyrS2-3Thi-BztA-GlnR*3-Ala-Ala-Lys-Ala-Ala-Ala-Lys-NH2 [I-1158]”: the IC50 was not above 10 µM. For “Ac-PL3-Asp-Ile-B5-Asp-3COOHF-CyLeu-Ala-Phe-Lys*3-PyrS2-3Thi-34ClF-GlnR*3-NH2 [I-1040]”, the IC50 is not above 10 µM. Consider “Ac-PL3-Asp-Npg-B5-Asp-3COOHF-Aib-Ala-Phe-Lys*3-PyrS2-3Thi-BztA-GlnR*3-[mPEG8]Lys-NH2 [I-1182]”, for which the IC50 is more than 20 µM. As to “Ac-PL3-Asp-DipA-B5-Asp-3COOHF-Ala-Ala-Phe-Lys*3-PyrS2-3Thi-34ClF-GlnR*3-Ala-Ala-[Ac-PEG8]-Lys-NH2-NH2 [I-1788]”, the IC50 is not above 10 µM. “Ac-PL3-Asp-Npg-B5-Asp-3COOHF-Aib-Ala-Phe-Lys*3-PyrS2-3Thi-BztA-GlnR*3-Ala-Ala-Val-Pro-Ala-Leu-Arg-NH2 [I-817]”: the IC50 is not above 10 µM.

With “Ac-PL3-Asp-Ile-B5-Asp-3COOHF-Ala-Ala-Phe-sCH2S*3-PyrS2-Phe-34ClF-TriAzOrn*3-NH2 [I-1869]”, the IC50 was not above 10 µM. On to “Ac-PL3-Asp-Ile-B5-Asp-3COOHF-Aib-Ala-Phe-hGlnR*3-PyrS2-Phe-34ClF-Lys*3-NH2 [I-1372]”, for which the IC50 is not above 10 µM. Still for that read-out and setting: as for “Ac-PL3-Asp-Npg-B5-Asp-3COOHF-Aib-Ala-Phe-Lys*3-PyrS2-hCbA-BztA-GlnR*3-Val-Glu-Ala-NH2 [I-1345]”, the figure is not above 10 µM. With “Ac-PL3-Asp-Npg-B5-Asp-3COOHF-Aib-Ala-Phe-Lys*3-PyrS2-hCypA-34ClF-GlnR*3-Val-Glu-Ala-NH2 [I-1349]”, the IC50 is not above 10 µM. With “Ac-PL3-Asp-Npg-B5-Asp-3COOHF-Aib-Ala-Phe-Lys*3-PyrS2-3Thi-BztA-hGlnR*3-NH2 [I-786]”, the IC50 was not above 10 µM. “Ac-PL3-Asp-Npg-B5-3COOHF-Asp-Aib-Ala-Phe-Lys*3-PyrS2-3Thi-BztA-GlnR*3-Ala-NH2 [I-742]”: the IC50 is more than 20 µM. For the molecule “Ac-PL3-Asp-Npg-B5-Asp-3COOHF-Aib-Ala-Phe-Lys*3-PyrS2-[MorphAc]2NH2F-BztA-GlnR*3-Ala-NH2 [I-1753]”, the IC50 was more than 20 µM. Consider “Ac-PL3-Asp-Ile-B5-Asp-3COOHF-Aib-Ala-Phe-GlnR*3-PyrS2-Phe-34ClF-AsnEDA*3-NH2 [I-1376]”, for which the IC50 was not above 10 µM.

Consider “Ac-PL3-Asp-Npg-B5-Asp-3COOHF-Aib-Ala-Phe-Lys*3-PyrS2-3Thi-BztA-GlnR*3-[mPEG4]Lys-NH2 [I-1181]”, for which the IC50 is more than 20 µM. Consider “Ac-PL3-Asp-Npg-B5-Asp-3COOHF-Aib-Ala-Phe-Lys*3-PyrS2-3Thi-BztA-GlnR*3-Ser-NH2 [I-721]”, for which the IC50 was not above 10 µM.

As to “Ac-PL3-Asp-DipA-B5-Asp-3COOHF-nLeu-Ala-Phe-Lys*3-PyrS2-3Thi-BztA-GlnR*3-Ala-NH2 [I-986]”, the IC50 was not above 10 µM.
